Data reported in the supplement of paper PMC10307832.

Columns and labels:
Assay in all cases: relative viability (nuclei count vs DMSO), 5 days (fraction); higher = more cells survive
RERF-LC-KJ = system: RERF-LC-KJ
How it was run: (§1)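 Five library-drug doses in √10 steps were combined with a fixed anchor-drug dose, or a single drug was given alone, by pin tool to lung cancer cell lines in 1536-well plates the day after seeding. Nuclei were stained and counted after 5 days. Relative viability is the nuclei count in treated wells over that in vehicle wells, taken as the median of duplicate plates.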

HCC-827 = system: HCC-827
How it was run: as §1

EKVX = system: EKVX
How it was run: as §1

LU99A = system: LU99A
How it was run: as §1

NCI-H2126 = system: NCI-H2126
How it was run: as §1

LCLC-103H = system: LCLC-103H
How it was run: as §1

SW 1573 = system: SW 1573
How it was run: as §1

ChaGo-K-1 = system: ChaGo-K-1
How it was run: as §1

LK-2 = system: LK-2
How it was run: as §1

NCI-H1666 = system: NCI-H1666
How it was run: as §1

NCI-H1975 = system: NCI-H1975
How it was run: as §1

SW 900 = system: SW 900
How it was run: as §1

PC-14 = system: PC-14
How it was run: as §1

NCI-H2405 = system: NCI-H2405
How it was run: as §1

EMC-BAC-2 = system: EMC-BAC-2
How it was run: as §1

EPLC-272H = system: EPLC-272H
How it was run: as §1

SK-LU-1 = system: SK-LU-1
How it was run: as §1

HCC-78 = system: HCC-78
How it was run: as §1

NCI-H23 = system: NCI-H23
How it was run: as §1

NCI-H322M = system: NCI-H322M
How it was run: as §1

NCI-H2342 = system: NCI-H2342
How it was run: as §1

Cc1sc2c(c1C)C(c1ccc(Cl)cc1)=N[C@@H](CC(=O)OC(C)(C)C)c1nnc(C)n1-2 [JQ1] + Nc1ncn([C@H]2C[C@H](O)[C@@H](CO)O2)c(=O)n1 [Decitabine] (partner 2 µM)
relative viability (RERF-LC-KJ; first compound 0.04 µM): 0.648 | relative viability (RERF-LC-KJ; first compound 0.1265 µM): 0.532 | relative viability (RERF-LC-KJ; first compound 0.4 µM): 0.56 | relative viability (RERF-LC-KJ; first compound 1.265 µM): 0.333 | relative viability (RERF-LC-KJ; first compound 4 µM): 0.235 | relative viability (HCC-827; first compound 0.04 µM): 0.34 | relative viability (HCC-827; first compound 0.1265 µM): 0.302 | relative viability (HCC-827; first compound 1.265 µM): 0.333 | relative viability (HCC-827; first compound 4 µM): 0.314 | relative viability (EKVX; first compound 0.04 µM): 0.338 | relative viability (EKVX; first compound 0.1265 µM): 0.36 | relative viability (EKVX; first compound 0.4 µM): 0.359 | relative viability (EKVX; first compound 1.265 µM): 0.35 | relative viability (EKVX; first compound 4 µM): 0.336 | relative viability (LU99A; first compound 0.04 µM): 0.932 | relative viability (LU99A; first compound 0.4 µM): 0.623 | relative viability (LU99A; first compound 1.265 µM): 0.293 | relative viability (LU99A; first compound 4 µM): 0.254 | relative viability (NCI-H2126; first compound 0.04 µM): 0.591 | relative viability (NCI-H2126; first compound 0.1265 µM): 0.584 | relative viability (NCI-H2126; first compound 0.4 µM): 0.561 | relative viability (NCI-H2126; first compound 1.265 µM): 0.411 | relative viability (NCI-H2126; first compound 4 µM): 0.428 | relative viability (LCLC-103H; first compound 0.04 µM): 0.684 | relative viability (LCLC-103H; first compound 0.1265 µM): 0.575 | relative viability (LCLC-103H; first compound 0.4 µM): 0.544 | relative viability (LCLC-103H; first compound 1.265 µM): 0.48 | relative viability (LCLC-103H; first compound 4 µM): 0.542 | relative viability (SW 1573; first compound 0.04 µM): 0.366 | relative viability (SW 1573; first compound 0.1265 µM): 0.443 | relative viability (SW 1573; first compound 0.4 µM): 0.393 | relative viability (SW 1573; first compound 1.265 µM): 0.216 | relative viability (SW 1573; first compound 4 µM): 0.275 | relative viability (ChaGo-K-1; first compound 0.04 µM): 0.552 | relative viability (ChaGo-K-1; first compound 0.1265 µM): 0.472 | relative viability (ChaGo-K-1; first compound 0.4 µM): 0.539 | relative viability (ChaGo-K-1; first compound 1.265 µM): 0.392 | relative viability (ChaGo-K-1; first compound 4 µM): 0.36 | relative viability (LK-2; first compound 0.04 µM): 0.272 | relative viability (LK-2; first compound 0.1265 µM): 0.351 | relative viability (LK-2; first compound 0.4 µM): 0.27 | relative viability (LK-2; first compound 1.265 µM): 0.132 | relative viability (LK-2; first compound 4 µM): 0.129 | relative viability (NCI-H1666; first compound 0.04 µM): 0.763 | relative viability (NCI-H1666; first compound 0.1265 µM): 0.745 | relative viability (NCI-H1666; first compound 0.4 µM): 0.577 | relative viability (NCI-H1666; first compound 1.265 µM): 0.589 | relative viability (NCI-H1666; first compound 4 µM): 0.504 | relative viability (NCI-H1975; first compound 0.04 µM): 0.393 | relative viability (NCI-H1975; first compound 0.1265 µM): 0.282 | relative viability (NCI-H1975; first compound 0.4 µM): 0.331 | relative viability (NCI-H1975; first compound 1.265 µM): 0.261 | relative viability (NCI-H1975; first compound 4 µM): 0.232 | relative viability (SW 900; first compound 0.04 µM): 0.431 | relative viability (SW 900; first compound 0.1265 µM): 0.472 | relative viability (SW 900; first compound 0.4 µM): 0.426 | relative viability (SW 900; first compound 1.265 µM): 0.307 | relative viability (SW 900; first compound 4 µM): 0.235 | relative viability (PC-14; first compound 0.04 µM): 0.188 | relative viability (PC-14; first compound 0.1265 µM): 0.19 | relative viability (PC-14; first compound 0.4 µM): 0.185 | relative viability (PC-14; first compound 1.265 µM): 0.0999 | relative viability (PC-14; first compound 4 µM): 0.117 | relative viability (NCI-H2405; first compound 0.04 µM): 0.81 | relative viability (NCI-H2405; first compound 0.4 µM): 0.75 | relative viability (NCI-H2405; first compound 1.265 µM): 0.577 | relative viability (NCI-H2405; first compound 4 µM): 0.471 | relative viability (EMC-BAC-2; first compound 0.04 µM): 0.947 | relative viability (EMC-BAC-2; first compound 0.4 µM): 0.944 | relative viability (EMC-BAC-2; first compound 1.265 µM): 0.726 | relative viability (EMC-BAC-2; first compound 4 µM): 0.605 | relative viability (EPLC-272H; first compound 0.04 µM): 0.365 | relative viability (EPLC-272H; first compound 0.1265 µM): 0.352 | relative viability (EPLC-272H; first compound 0.4 µM): 0.323 | relative viability (EPLC-272H; first compound 1.265 µM): 0.246 | relative viability (EPLC-272H; first compound 4 µM): 0.253 | relative viability (SK-LU-1; first compound 0.04 µM): 0.614 | relative viability (SK-LU-1; first compound 0.1265 µM): 0.519 | relative viability (SK-LU-1; first compound 0.4 µM): 0.416 | relative viability (SK-LU-1; first compound 1.265 µM): 0.308 | relative viability (SK-LU-1; first compound 4 µM): 0.213 | relative viability (HCC-78; first compound 0.04 µM): 0.604 | relative viability (HCC-78; first compound 0.1265 µM): 0.529 | relative viability (HCC-78; first compound 0.4 µM): 0.691 | relative viability (HCC-78; first compound 1.265 µM): 0.563 | relative viability (HCC-78; first compound 4 µM): 0.588 | relative viability (NCI-H23; first compound 0.04 µM): 0.323 | relative viability (NCI-H23; first compound 0.1265 µM): 0.3 | relative viability (NCI-H23; first compound 0.4 µM): 0.303 | relative viability (NCI-H23; first compound 1.265 µM): 0.244 | relative viability (NCI-H23; first compound 4 µM): 0.211 | relative viability (NCI-H322M; first compound 0.04 µM): 0.631 | relative viability (NCI-H322M; first compound 0.1265 µM): 0.886 | relative viability (NCI-H322M; first compound 0.4 µM): 0.641 | relative viability (NCI-H322M; first compound 1.265 µM): 0.594 | relative viability (NCI-H322M; first compound 4 µM): 0.592 | relative viability (NCI-H2342; first compound 0.04 µM): 0.79 | relative viability (NCI-H2342; first compound 0.1265 µM): 0.636 | relative viability (NCI-H2342; first compound 0.4 µM): 0.737 | relative viability (NCI-H2342; first compound 1.265 µM): 0.76 | relative viability (NCI-H2342; first compound 4 µM): 0.665
